In patent publication US12083089B2, “Compositions and methods for stimulating ventilatory and/or respiratory drive” (CASE WESTERN RESERVE UNIVERSITY, priority 2015, dated 2024):
Entries after “also recorded” stand apart in the source; their conditions may differ.

Assays:
[1] = test system: freely moving rats; test: Hot-plate (hind-paw withdrawal) latency (HPL), Hargreaves's test, morphine 10 mg/kg; type: in vivo, rat
[2] = test system: freely moving rats; test: Tail-flick latency (TFL) test; type: in vivo, rat
[3] = test system: conscious rats; test: Morphine-induced analgesia (paw withdrawal latency assay), Example 1; type: in vivo, rat; conditions: 500 μmol/kg i.v.; 10 mg/kg of morphine; FIG. 13
[4] = test system: freely moving adult male Sprague-Dawley rats; test: Whole-body plethysmography of ventilatory parameters in morphine-treated rats
Method: Permissions, rats, surgical procedures and blinding of protocols. All studies were carried out in accordance with the NIH Guide for the Care and Use of Laboratory Animals (NIH Publication No. […]) revised in 1996. The protocols were approved by the Animal Care and Use Committees of the University of Virginia, Case Western Reserve University and Loma Linda University. In addition, all studies were carried out in compliance with the ARRIVE (Animal Research: Reporting of In Vivo Experiments) guidelines. Adult male Sprague-Dawley rats (Harlan, Madison, WI, USA) were implanted with jugular vein catheters under 2% isoflurane anesthesia and some rats received femoral arterial catheters. The rats were allowed at least four days to recover from surgery before use. All arterial catheters were flushed daily with heparin solution (50 units of heparin in phosphate-buffered saline at 0.1 M, pH 7.4). All catheters were flushed with phosphate-buffered saline (0.1 M, pH 7.4) approximately four hours before commencement of the experiments. All studies were performed in a quiet laboratory with relative humidity of 49±2% and room temperature of 21.4±0.2° C. […] Also, please note that the antinociception and ventilatory studies were done in separate groups of rats so as to not complicate the respiratory measurements. The recording (plethysmography, antinociception) sessions and the arterial blood gas assays were done by a particular investigator who administered the opioid, vehicle or test drug such as d-cystine diME. The syringes containing the vehicle or test drug were made up by another investigator, such that the investigator running the actual experiment was blinded to the treatment protocol. In every case, the data files resulting from a particular study were first collated and analyzed by another investigator in the group.
Ventilatory parameters were recorded in freely moving rats by whole body plethysmography (PLY3223; Data Sciences International, St. Paul, MN). The rats were placed in individual chambers and given 60 min to acclimatize to allow true resting ventilatory parameters to be established. […] The rats received another injection of vehicle or 1-NACme (500 μmol/kg, IV) 15 min later and ventilatory parameters were recorded for a further 60 min.
The provided software (Fine Pointe, BUXCO) constantly corrected digitized values for changes in chamber temperature and humidity. Pressure changes associated with the respiratory waveforms were then converted to volumes (i.e., TV, PIF and PEF) using the algorithm of Epstein and colleagues. Specifically, factoring in chamber temperature and humidity, the cycle analyzers filtered the acquired signals, and BUXCO algorithms (Fine Pointe) generated an array of box flow data that identified a waveform segment as an acceptable breath. From that data vector, the minimum and maximum values were determined. Flows at this point were considered to be “box flow” signals.
The recorded data (1 min bins) and derived parameters, Vt/Ti and Response Area (cumulative percent changes from pre-values) were taken for statistical analyses. The pre-drug 1 min bins excluded occasional marked deviations from resting due to movements or scratching by the rats. These exclusions ensured accurate determinations of baseline parameters. The data are presented as mean±SEM. All data unless other-wise stated (see immediately below) were analyzed by one-way or two-way analysis of variance followed by Student's modified t test with Bonferroni corrections for multiple comparisons between means using the error mean square terms from each ANOVA. A value of P<0.05 denoted the initial level of statistical significance that was modified according to the number of comparisons between means.

[5] = test system: conscious (adult male) C57 black 6 (C57BL6) mice; test: Ventilatory responses in conscious mice; type: in vivo, mouse
[6] = test system: adult male rats; test: Von Frey Test, morphine 1 mg/kg; type: in vivo, rat; conditions: for force needed to initiate hind-paw withdrawal (Von Frey): FIG. 27 study
[7] = test system: conscious male adult Sprague-Dawley rats; test: Plethysmographic ventilatory responses to test compounds in conscious rats; type: in vivo, rat
[8] = test system: freely moving rats; test: Arterial blood-gas chemistry and A-a gradient in morphine-treated rats; type: in vivo, rat
[9] = test system: rats; test: Hemodynamics (preliminary toxicology); type: in vivo, rat; conditions: 500 μmol/kg, i.v.
From the text: FIGS. 11(A-C) illustrate plots showing the effects of test agents (500 μmol/kg, i.v.) on hemodynamic variables. Data are presented mean±SEM (n=8 rats per group).

[10] = test system: adult male rats; test: Hargreaves Hind-paw Latency Test, morphine 1 mg/kg; type: in vivo, rat; conditions: for effect on the antinociception actions of morphine (Hargreaves): 500 μmol/kg IV with morphine sulfate 1.0 mg/kg IV; for thermal nociception (Hargreaves Testing) when given alone: 500 μmol/kg IV, tested 20 to 30 min post-injection; for Hargreaves hind-paw withdrawal latency: FIG. 26 study
[11] = test system: humans; conditions: oral NAC three times daily, exposed acutely to isocapnic hypoxia; cited from earlier work
[12] = 500 μmol/kg IV, before morphine
[13] = drug 500 μmol/kg IV 20 min before morphine 10 mg/kg IV
[14] = 500 μmol/kg IV in morphine (10 mg/kg IV)-treated rats, FIG. 21
[15] = freely moving rats, morphine 10 mg/kg IV, then d-cystine diEE 500 μmol/kg IV 15 min later

CCOC(=O)[C@H](N)CSSC[C@@H](N)C(=O)OCC [D-Cystine diEE, D-Cystine diethylester]
HPL after the drug alone [1, 12]: transient increase | time within which the transient increase in HPL resolved [1, 12]: ≤ 15 min | antinociceptive effects of morphine (HPL) in drug-pretreated rats [1, 13]: enhanced | TFL after the drug alone [2, 12]: transient increase | time within which the transient increase in TFL resolved [2, 12]: ≤ 15 min | antinociceptive effects of morphine (TFL) in drug-pretreated rats [2, 13]: enhanced | morphine analgesia [3]: does not attenuate | initial peak responses: Freq, TV, MV, PIF, PEF, EF50, inspiratory and expiratory drive [4, 14]: pronounced increases | total response: Freq [4, 14]: relatively minor increase in Freq | total response: TV, MV, PIF, PEF, PEF/PIF, EF50, inspiratory and expiratory drives [4, 14]: robust sustained increases | ventilatory depressant effects of morphine incl. tidal volume/inspiratory time (Vt/Ti) ([4]; bolus 500 μmol/kg i.v. (D-CYSee 2×500 μmol/kg) after morphine 10 mg/kg i.v., conscious rats, Example 1): immediate and sustained reversal | duration of the brief increase in Freq ([4]; d-cystine diEE 500 μmol/kg IV, 15 min after morphine 10 mg/kg IV): about 5 min | changes in EF50 [4, 15]: further prompt and sustained increase | changes in PEF/PIF [4, 15]: decrease in PEF/PIF immediately upon injection | changes in expiratory drive (TV/Te) [4, 15]: substantial and sustained increase | changes in expiratory time (Te) [4, 15]: without greatly affecting Te | changes in frequency of breathing (Freq) [4, 15]: brief increase in Freq of about 5 min in duration that was followed by a gradual and sustained elevation | changes in inspiratory drive (TV/Ti) [4, 15]: noticeable but partial recovery | changes in inspiratory time (Ti) [4, 15]: brief decrease in Ti | changes in minute ventilation (MV) [4, 15]: prompt and long-lasting reversal | changes in peak expiratory flow (PEF) [4, 15]: marked increase in PEF to levels well above pre-morphine levels | changes in peak inspiratory flow (PIF) [4, 15]: prompt and relatively sustained reversal | changes in the ratio of Te/Ti [4, 15]: similarly

COC(=O)[C@H](N)CSSC[C@@H](N)C(=O)OC [D-Cystine diME, D-Cystine dimethylester]
duration of increases in frequency of breathing, tidal volume and minute ventilation [5]: approximately 20 min | frequency of breathing, tidal volume and minute ventilation (response) ([5]; 250 mol/kg dose): robust increases | effect on the antinociception actions of morphine (Von Frey) ([6]; 500 μmol/kg IV with morphine sulfate 1.0 mg/kg IV, listed as d-cystine diME): neither thiolester affected | mechanical allodynia (Von Frey Testing) when given alone ([6]; 500 μmol/kg IV, tested 20 to 30 min post-injection, listed as d-cystine diME): neither d-cystine diME nor L-cystine diME affected | force needed to initiate hind-paw withdrawal (Von Frey) ([6]; Morphine+D-cystine diME): 176±5 grams | force needed to initiate hind-paw withdrawal (Von Frey) ([6]; given alone, D-cystine diME 500 μmol/kg IV, morphine 1 mg/kg IV): 144±8 grams | duration of increases in frequency of breathing, tidal volume and minute ventilation ([7]; 500 μmol/kg, i.v.): 20 min | total ventilatory responses recorded over the 30 min post-injection period (% baseline), comparison of efficacy ([7]; 500 μmol/kg, i.v., FIG. 2): most efficacious of the test compounds | frequency of breathing, tidal volume and minute ventilation (response) ([7]; 500 mol/kg, i.v.): robust increases | how sustained the ventilatory effect is, compared with D-CYSee and L-CYSee ([7]; 500 mol/kg, i.v.): most sustained effect | dose-dependency of ventilatory responses ([7]; FIG. 3): clearly dose-dependent | deleterious actions of morphine on ABG chemistry and A-a gradient ([8]; bolus 500 μmol/kg i.v. after morphine 10 mg/kg i.v., Example 1): reversed | changes in ABG chemistry (pH, pCO2, pO2 and sO2) ([8]; freely moving rats, morphine 10 mg/kg IV, then drug 500 μmol/kg IV 15 min later, FIG. 18): reversed immediately | changes in A-a gradient ([8]; freely moving rats, morphine 10 mg/kg IV, then drug 500 μmol/kg IV 15 min later, FIG. 19): reversed immediately | hemodynamic responses (FIG. 11) [9]: minimal responses; also recorded: did not elicit significant responses | effect on the antinociception actions of morphine (Hargreaves) ([10]; listed as D-cystine diME): not different from each other | effect on the antinociception actions of morphine (Hargreaves) ([10]; listed as d-cystine diME): neither thiolester affected | thermal nociception (Hargreaves Testing) when given alone [10]: not a significant difference | thermal nociception (Hargreaves Testing) when given alone ([10]; listed as d-cystine diME): neither d-cystine diME nor L-cystine diME affected | Hargreaves hind-paw withdrawal latency ([10]; Morphine+D-Cystine diME): 16.9 ± 1.0 s | Hargreaves hind-paw withdrawal latency ([10]; given alone, D-cystine diME 500 μmol/kg IV, morphine sulfate 1 mg/kg IV): 12.9 ± 1.0 s | immediate effects on Freq, TV or MV ([4]; rat, in vivo): minimal immediate effects

CC(=O)N[C@@H](CS)C(=O)O [NAC, N-acetylcysteine]
increase in minute ventilation [11]: 24±4%
